# Test results reported in US12247064B2, “Modified ligand-gated ion channels and methods of use” (Howard Hughes Medical Institute, priority 2017, dated 2025).
# Like-named read-outs stand apart in the source and are kept apart here.
# Key:
# α7-5HT3 = α7-5HT3 (Homo sapiens, UniProt P36544, M226I/T225I)
# α7GlyR Q79G G175K Y115F = biological target: T1, α7GlyR Q79G G175K Y115F (Homo sapiens, UniProt P36544, G175K/Q79G/Y115F); test: Agonist potency at chimeric channel; format: cell-based; conditions: Table 6
# T1 construct: expressed in transfected cells
# T1 sequence (P36544 with tags, fused parts or gaps Q79G/Y115F/G175K): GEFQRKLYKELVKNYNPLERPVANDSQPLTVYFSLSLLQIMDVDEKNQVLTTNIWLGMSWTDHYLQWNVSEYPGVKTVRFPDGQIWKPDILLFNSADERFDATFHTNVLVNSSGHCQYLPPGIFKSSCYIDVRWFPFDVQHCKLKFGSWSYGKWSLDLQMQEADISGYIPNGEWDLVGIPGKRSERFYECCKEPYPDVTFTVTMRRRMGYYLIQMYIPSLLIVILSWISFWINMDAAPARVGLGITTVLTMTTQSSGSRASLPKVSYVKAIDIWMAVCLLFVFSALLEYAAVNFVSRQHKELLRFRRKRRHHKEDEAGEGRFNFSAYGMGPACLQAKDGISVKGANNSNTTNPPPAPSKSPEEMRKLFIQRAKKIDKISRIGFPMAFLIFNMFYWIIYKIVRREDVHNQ
# α7GlyR W77F Q79G G175K = biological target: T2, α7GlyR W77F Q79G G175K (Homo sapiens, UniProt P36544, G175K/Q79G/W77F); test: Agonist potency at chimeric channel; format: cell-based; conditions: Table 6
# T2 construct: expressed in transfected cells
# T2 sequence (P36544 with tags, fused parts or gaps W77F/Q79G/G175K): as the sequence (P36544 with tags, fused parts or gaps Q79G/Y115F/G175K) above, with W55F, F93Y counted along it
# [1] = tested on: α7GlyR G175K / A298G mutant chimeric channels; format: cell-based, human; conditions: read-out: Agonist potency
# α7^R21D,E41R-5HT3 = biological target: T3, α7^R21D,E41R-5HT3 (Homo sapiens, UniProt P36544, E41R/M226I/R27D/T225I); test: Whole cell recordings in HEK cells expressing charge reversal channel; format: cell-based; conditions: V5 epitope tag
# T3 construct: expressed in transfected cells; host or cells: HEK cells
# T3 sequence (P36544 with tags, fused parts or gaps R27D/E41R/T225I/M226I): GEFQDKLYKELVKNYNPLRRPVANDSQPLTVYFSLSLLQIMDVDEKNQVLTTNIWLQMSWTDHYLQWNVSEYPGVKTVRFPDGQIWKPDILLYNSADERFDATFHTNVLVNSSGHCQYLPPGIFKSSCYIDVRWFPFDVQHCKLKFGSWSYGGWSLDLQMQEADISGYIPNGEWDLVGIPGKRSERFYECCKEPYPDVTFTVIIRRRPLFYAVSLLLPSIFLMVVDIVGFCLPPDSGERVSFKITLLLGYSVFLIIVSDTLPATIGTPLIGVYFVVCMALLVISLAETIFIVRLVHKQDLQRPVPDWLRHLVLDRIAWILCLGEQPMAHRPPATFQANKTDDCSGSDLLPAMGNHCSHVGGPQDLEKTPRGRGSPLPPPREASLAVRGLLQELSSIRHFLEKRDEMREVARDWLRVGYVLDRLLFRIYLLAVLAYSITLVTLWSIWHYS
# α7-GlyR = α7-GlyR (Homo sapiens, UniProt P36544)
# α7-GlyR, sequence (P36544 with tags, fused parts or gaps): as the sequence (P36544 with tags, fused parts or gaps Q79G/Y115F/G175K) above, with G57Q, F93Y, K153G counted along it
# α7-GlyR^A298G = biological target: T4, α7-GlyR^A298G (Homo sapiens, UniProt P36544, A298G); format: cell-based; conditions: HEK cells; Table 2; read-out: Mean EC50 and SEM in parentheses
# T4 construct: expressed in transfected cells; host or cells: HEK cells
# T4 sequence (P36544 with tags, fused parts or gaps, stated change not applied): as the sequence (P36544 with tags, fused parts or gaps Q79G/Y115F/G175K) above, with G57Q, F93Y, K153G, A276G counted along it
# α7^Q79G-5HT3 = biological target: T5, α7^Q79G-5HT3 (Homo sapiens, UniProt P36544, M226I/Q79G/T225I); format: cell-based, human α7 nAChR LBD, murine 5HT3 IPD; conditions: HEK cells; Table 1
# T5 construct: expressed in transfected cells; host or cells: HEK cells
# T5 sequence (P36544 with tags, fused parts or gaps Q79G/T225I/M226I limits assumed): as the sequence (P36544 with tags, fused parts or gaps R27D/E41R/T225I/M226I) above, with D5R, R19E, Q57G counted along it
# α7^Q79A-GlyR = biological target: T6, α7^Q79A-GlyR (Homo sapiens, UniProt P36544, Q79A); format: cell-based; conditions: HEK cells; Table 2; read-out: Mean EC50 and SEM in parentheses
# T6 construct: expressed in transfected cells; host or cells: HEK cells
# T6 sequence (P36544 with tags, fused parts or gaps Q79A): as the sequence (P36544 with tags, fused parts or gaps Q79G/Y115F/G175K) above, with G57A, F93Y, K153G counted along it
# α7^Q79S-5HT3 = biological target: T7, α7^Q79S-5HT3 (Homo sapiens, UniProt P36544, M226I/Q79S/T225I); format: cell-based, human α7 nAChR LBD, murine 5HT3 IPD; conditions: HEK cells; Table 1
# T7 construct: expressed in transfected cells; host or cells: HEK cells
# T7 sequence (P36544 with tags, fused parts or gaps Q79S/T225I/M226I limits assumed): as the sequence (P36544 with tags, fused parts or gaps R27D/E41R/T225I/M226I) above, with D5R, R19E, Q57S counted along it
# α7^Q79G-GlyR = biological target: T8, α7^Q79G-GlyR (Homo sapiens, UniProt P36544, Q79G); format: cell-based; conditions: HEK cells; Table 2; read-out: Mean EC50 and SEM in parentheses
# T8 construct: expressed in transfected cells; host or cells: HEK cells
# T8 sequence (P36544 with tags, fused parts or gaps Q79G): as the sequence (P36544 with tags, fused parts or gaps Q79G/Y115F/G175K) above, with F93Y, K153G counted along it
# α7^Q79A-5HT3 = biological target: T9, α7^Q79A-5HT3 (Homo sapiens, UniProt P36544, M226I/Q79A/T225I); format: cell-based, human α7 nAChR LBD, murine 5HT3 IPD; conditions: HEK cells; Table 1
# T9 construct: expressed in transfected cells; host or cells: HEK cells
# T9 sequence (P36544 with tags, fused parts or gaps Q79A/T225I/M226I limits assumed): as the sequence (P36544 with tags, fused parts or gaps R27D/E41R/T225I/M226I) above, with D5R, R19E, Q57A counted along it
# α4β2 nAChR [2] = biological target: T10, α4β2 nAChR (Homo sapiens, UniProt P17787+P43681); test: Agonist potency at α4β2 nAChR
# T10 sequence (P43681 29-627 limits assumed): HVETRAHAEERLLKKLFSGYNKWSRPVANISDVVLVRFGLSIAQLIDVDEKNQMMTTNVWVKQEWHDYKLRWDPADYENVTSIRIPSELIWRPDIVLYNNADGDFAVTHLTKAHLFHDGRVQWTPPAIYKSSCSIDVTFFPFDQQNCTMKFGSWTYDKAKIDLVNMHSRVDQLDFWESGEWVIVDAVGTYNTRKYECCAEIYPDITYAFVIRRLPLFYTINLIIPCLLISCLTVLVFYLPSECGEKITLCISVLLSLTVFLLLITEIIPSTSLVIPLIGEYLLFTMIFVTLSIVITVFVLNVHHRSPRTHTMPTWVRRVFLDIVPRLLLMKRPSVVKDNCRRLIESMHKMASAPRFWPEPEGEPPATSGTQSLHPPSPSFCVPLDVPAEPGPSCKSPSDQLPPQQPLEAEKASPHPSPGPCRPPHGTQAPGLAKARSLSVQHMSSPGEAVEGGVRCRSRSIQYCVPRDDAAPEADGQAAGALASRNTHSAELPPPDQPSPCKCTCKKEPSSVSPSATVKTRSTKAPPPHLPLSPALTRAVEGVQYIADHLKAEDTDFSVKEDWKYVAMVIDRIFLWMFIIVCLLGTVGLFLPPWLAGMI
# T10 sequence (P17787 26-502): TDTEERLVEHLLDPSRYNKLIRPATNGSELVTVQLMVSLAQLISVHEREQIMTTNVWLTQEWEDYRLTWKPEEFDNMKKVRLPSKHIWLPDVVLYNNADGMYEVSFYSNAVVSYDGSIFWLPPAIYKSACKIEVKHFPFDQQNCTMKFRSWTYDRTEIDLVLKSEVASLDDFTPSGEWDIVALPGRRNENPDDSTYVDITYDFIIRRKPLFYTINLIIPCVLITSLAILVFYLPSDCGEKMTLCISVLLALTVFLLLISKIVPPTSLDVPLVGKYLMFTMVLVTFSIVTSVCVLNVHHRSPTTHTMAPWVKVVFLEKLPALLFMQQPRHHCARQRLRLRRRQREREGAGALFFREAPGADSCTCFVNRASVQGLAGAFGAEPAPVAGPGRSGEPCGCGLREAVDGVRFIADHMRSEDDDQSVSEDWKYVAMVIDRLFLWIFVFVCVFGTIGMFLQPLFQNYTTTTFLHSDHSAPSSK
# α4β2 nAChR [3] = biological target: T10, α4β2 nAChR; format: cell-based
# Description: FIGS. 14A-14J show ultrapotent chemogenetic agonists (uPSEMs). […] LED: lowest effective dose for mice in SNr rotation assay. Units: nM; parentheses: SEM. Selectivity relative to PSAM^4-GlyR in bold. […] (FIG. 14E) Response amplitude normalized to ACh.
# [4] = tested on: mice expressing PSAM^4-GlyR unilaterally in SNr; test: Unilateral SNr silencing rotation assay; format: in vivo, mouse; conditions: SNr silencing rotation assay in mice
# 5HT3-R = biological target: T11, 5HT3-R (Homo sapiens, UniProt P46098); test: Agonist potency at 5HT3-R; format: cell-based; conditions: read-out: EC50MP
# T11 sequence (P46098 24-478): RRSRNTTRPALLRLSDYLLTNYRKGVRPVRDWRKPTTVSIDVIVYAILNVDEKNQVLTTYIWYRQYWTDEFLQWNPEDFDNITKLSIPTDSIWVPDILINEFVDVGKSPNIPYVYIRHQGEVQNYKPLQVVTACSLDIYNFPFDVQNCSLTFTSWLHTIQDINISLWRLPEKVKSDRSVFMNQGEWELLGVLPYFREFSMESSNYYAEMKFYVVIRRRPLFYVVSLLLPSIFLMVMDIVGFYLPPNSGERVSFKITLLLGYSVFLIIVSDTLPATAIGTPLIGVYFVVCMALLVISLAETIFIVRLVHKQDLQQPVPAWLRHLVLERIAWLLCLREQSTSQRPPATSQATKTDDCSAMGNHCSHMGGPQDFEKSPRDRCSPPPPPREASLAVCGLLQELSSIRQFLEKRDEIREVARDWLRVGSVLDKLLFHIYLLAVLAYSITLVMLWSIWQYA
# α7-5HT3, sequence (P36544 with tags, fused parts or gaps T225I/M226I limits assumed): as the sequence (P36544 with tags, fused parts or gaps R27D/E41R/T225I/M226I) above, with D5R, R19E counted along it
smiles,measurement,setting,value
"c1ccc2c(c1)Sc1ccccc1N2CC1CN2CCC1CC2 (stereo not shown) [Mequitazine, reference compound]",EC50,"α7-5HT3; read-out: Potency, Table 6",> 30000 nM
same,EC50,α7GlyR Q79G G175K Y115F,> 10000 nM
same,EC50,α7GlyR W77F Q79G G175K,150 nM
O=C(NC1CN2CCC1CC2)c1ccc(Cl)cc1 (stereo not shown) [PNU-282987],EC50,[1]; α7GlyR Q79G A298G G175K Y115F,9 nM
same,EC50,[1]; α7GlyR Q79G A298G P216I,250 nM
same,EC50,[1]; α7GlyR Q79G A298G Y115F K395 K396A,110 nM
same,EC50,[1]; α7GlyR Q79G G175K A298G,0.36 nM
same,EC50,[1]; α7GlyR Q79G W77F A298G,1630 nM
same,EC50,[1]; α7GlyR R27D E41R Q79G Y115F,340 nM
same,whole cell responses,"α7^R21D,E41R-5HT3",potent responses
Cn1cc(C(=O)C(=O)NC2CN3CCC2CC3)c2ccccc21 (stereo not shown) [RS56812],EC50,"α7-5HT3; read-out: Mean EC50, HEK cells, Table 1",10000 nM
same,EC50,α7-GlyR,6500 nM
same,EC50,α7-GlyR^A298G,2300 nM
same,EC50,α7^Q79G-5HT3,1400 nM
same,EC50,α7^Q79A-GlyR,3500 nM
same,EC50,α7^Q79S-5HT3,5700 nM
same,EC50,α7^Q79G-GlyR,2000 nM
same,EC50,α7^Q79A-5HT3,6800 nM
CCCOc1cnc2cc3c(cc2n1)C1CNCC3C1 (stereo not shown) [compound 817],EC50,α7-5HT3; read-out: EC50MP,> 100000 nM
same,α4β2 nAChR agonism,α4β2 nAChR [2],do not show evident α4β2 nAChR agonism
same,EC50,α4β2 nAChR [2]; read-out: EC50MP,> 30000 nM
same,effect on α4β2 nAChR,α4β2 nAChR [3],inhibits
same,EC50,α7-GlyR,> 100000 nM
same,In vivo potency,[4],0.1 mpk
same,EC50,5HT3-R,1500 ± 1000 nM
